Experimental data taken from patent publication US12435068B2, “Anthelmintic compounds” (Elanco Animal Health GmBh, priority 2018, dated 2025).
In brackets after ≈: the same amount, converted by molar mass.

Tests used:
C. elegans Slo-1a = C. elegans Slo-1a (Caenorhabditis elegans, UniProt Q95V25)
Procedure: Cells were cultured at 37° C. and 5% CO2 in MEMalpha with Gutamax I (Invitrogen, Nr.: 32571), supplemented with 10% (v/v) heat inactivated fetal bovine serum (Invitrogen, Nr.: 10500), G418 (1 mg/ml, Invitrogen, Nr.: 10131). Cells were detached using Accutase (Sigma, Nr.: A6964).
Membrane Potential Measurements
Laboratory compound testing was performed on 384-well microtiter plates (MTPs, Greiner, Nr.: 781092). 8000 cells/well were plated onto 384-well MTPs and cultured for 20 to 24 hours at 37° C. and 5% CO2. After removal of the cell culture medium, the cells were washed once with tyrode (150 mM NaCl, 0.3 mM KCl, 2 mM CaCl2, 1 mM MgCl2, 0.8 mM NaH2PO4, 5 mM Glucose, 28 mM Hepes, pH 7.4) and then loaded with the voltage sensitive dye of the Membrane Potential Assay Kit diluted in tyrode for 1 h at room temperature.
After starting the measurement of fluorescence using a FLIPR Tetra (Molecular Devices, Exc. 510-545 nm, Emm. 565-625 nm), test compounds were added followed by the addition of KCl tyrode (final assay concentration: 70 mM KCl, 2 mM CaCl2, 1 mM MgCl2, 0.8 mM NaH2PO4, 5 mM Glucose, 28 mM Hepes, pH 7.4, including the voltage sensitive dye). The measurement was completed after 7 minutes.

[1] = tested on: Dirofilaria immitis microfilariae; experiment: In Vitro Assay 2: Dirofilaria immitis microfilariae (DIROIM L1) motility; assay type: cell-based; conditions: 72 h, read-out: EC50 ppm

Chain of C. elegans Slo-1a (Q95V25 whole entry): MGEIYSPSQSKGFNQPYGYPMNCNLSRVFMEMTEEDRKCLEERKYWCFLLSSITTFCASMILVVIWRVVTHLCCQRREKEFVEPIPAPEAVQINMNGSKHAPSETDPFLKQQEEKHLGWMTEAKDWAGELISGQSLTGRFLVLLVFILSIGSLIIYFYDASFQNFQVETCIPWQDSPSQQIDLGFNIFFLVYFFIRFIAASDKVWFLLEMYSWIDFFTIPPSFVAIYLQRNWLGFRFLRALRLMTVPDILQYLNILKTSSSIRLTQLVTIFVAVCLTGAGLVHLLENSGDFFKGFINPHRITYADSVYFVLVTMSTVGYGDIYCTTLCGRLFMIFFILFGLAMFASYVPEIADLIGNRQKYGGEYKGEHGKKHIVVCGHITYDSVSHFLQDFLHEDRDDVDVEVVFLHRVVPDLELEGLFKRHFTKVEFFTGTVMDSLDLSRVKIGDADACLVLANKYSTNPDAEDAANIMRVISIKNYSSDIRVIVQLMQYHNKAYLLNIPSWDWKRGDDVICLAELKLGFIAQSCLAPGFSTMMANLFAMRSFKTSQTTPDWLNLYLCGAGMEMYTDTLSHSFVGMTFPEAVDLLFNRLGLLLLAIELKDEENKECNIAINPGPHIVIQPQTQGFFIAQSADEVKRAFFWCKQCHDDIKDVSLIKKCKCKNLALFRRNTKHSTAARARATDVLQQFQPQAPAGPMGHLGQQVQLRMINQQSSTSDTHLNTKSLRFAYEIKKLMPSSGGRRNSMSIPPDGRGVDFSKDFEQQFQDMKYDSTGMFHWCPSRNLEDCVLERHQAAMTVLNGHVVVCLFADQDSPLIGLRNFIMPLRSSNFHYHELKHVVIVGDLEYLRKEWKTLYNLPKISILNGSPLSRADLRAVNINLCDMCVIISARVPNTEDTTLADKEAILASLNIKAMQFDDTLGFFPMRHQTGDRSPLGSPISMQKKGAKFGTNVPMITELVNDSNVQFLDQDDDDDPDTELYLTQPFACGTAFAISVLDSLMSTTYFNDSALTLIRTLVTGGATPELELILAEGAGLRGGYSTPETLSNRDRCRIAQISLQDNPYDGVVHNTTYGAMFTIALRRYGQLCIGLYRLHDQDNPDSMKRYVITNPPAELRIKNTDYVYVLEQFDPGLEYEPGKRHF

## CC(C)c1c(C(=O)N[C@H]2CCOc3ccccc32)sc2c(-c3cc(Cl)cc(Cl)c3)cccc12 [Example Compound S1-1, 7-(3,5-Dichlorophenyl)-N-[(4S)-3,4-dihydro-2H-chromen-4-yl]-3-isopropyl-1-benzothiophene-2-carboxamide]
C. elegans Slo-1a
  EC50: 2.51 nM
[1]
  EC50: 0.08 µg/mL (≈ 0.161 µM)

## CC(C)c1c(C(=O)N[C@H]2CCOc3ccccc32)sc2c(-c3ccc(F)c(F)c3)cccc12 [Example Compound S1-4, 7-(3,4-Difluorophenyl)-N-[(4S)-3,4-dihydro-2H-chromen-4-yl]-3-isopropyl-1-benzothiophene-2-carboxamide]
C. elegans Slo-1a
  EC50: 50.1 nM
[1]
  EC50: 0.77 µg/mL (≈ 1.66 µM)

## CN(C)c1c(C(=O)N[C@H]2CCOc3ccccc32)sc2c(-c3cc(Cl)cc(Cl)c3)cccc12 [Example Compound S1-5, 7-(3,5-Dichlorophenyl)-N-[(4S)-3,4-dihydro-2H-chromen-4-yl]-3-(dimethylamino)-1-benzothiophene-2-carboxamide]
C. elegans Slo-1a
  EC50: 25.1 nM
[1]
  EC50: 0.25 µg/mL (≈ 0.503 µM)

## CN(C)c1c(C(=O)N[C@H]2CCOc3ccccc32)sc2c(-c3cccc(Cl)c3)cccc12 [Example Compound S1-6, 7-(3-Chlorophenyl)-N-[(4S)-3,4-dihydro-2H-chromen-4-yl]-3-(dimethylamino)-1-benzothiophene-2-carboxamide]
C. elegans Slo-1a
  EC50: 31.6 nM
[1]
  EC50: 0.25 µg/mL (≈ 0.54 µM)

## CN(C)c1c(C(=O)N[C@H]2CCOc3ccccc32)sc2c(-c3cccc(Cl)c3Cl)cccc12 [Example Compound S1-7, 7-(2,3-Dichlorophenyl)-N-[(4S)-3,4-dihydro-2H-chromen-4-yl]-3-(dimethylamino)-1-benzothiophene-2-carboxamide]
C. elegans Slo-1a
  EC50: 10 nM
[1]
  EC50: 0.11 µg/mL (≈ 0.221 µM)

## CN(C)c1c(C(=O)N[C@H]2CCOc3ccccc32)sc2c(-c3ccc(F)c(F)c3)cccc12 [Example Compound S1-8, 7-(3,4-Difluorophenyl)-N-[(4S)-3,4-dihydro-2H-chromen-4-yl]-3-(dimethylamino)-1-benzothiophene-2-carboxamide]
C. elegans Slo-1a
  EC50: 3160 nM
[1]
  EC50: 0.63 µg/mL (≈ 1.36 µM)

## COc1c(C(=O)N[C@H]2CCOc3ccccc32)sc2c(-c3cc(Cl)cc(Cl)c3)cccc12 [Example Compound S1-9, 7-(3,5-Dichlorophenyl)-N-[(4S)-3,4-dihydro-2H-chromen-4-yl]-3-methoxy-1-benzothiophene-2-carboxamide]
C. elegans Slo-1a
  EC50: 251 nM
[1]
  EC50: 0.27 µg/mL (≈ 0.557 µM)

## COc1c(C(=O)N[C@H]2CCOc3ccccc32)sc2c(-c3cccc(Cl)c3)cccc12 [Example Compound S1-10, 7-(3-Chlorophenyl)-N-[(4S)-3,4-dihydro-2H-chromen-4-yl]-3-methoxy-1-benzothiophene-2-carboxamide]
C. elegans Slo-1a
  EC50: 398 nM
[1]
  EC50: 0.37 µg/mL (≈ 0.822 µM)

## O=C(N[C@H]1CCOc2ccccc21)c1sc2c(-c3cccc(Cl)c3Cl)cccc2c1Cl [Example Compound S1-12, 3-Chloro-7-(2,3-dichlorophenyl)-N-[(4S)-3,4-dihydro-2H-chromen-4-yl]-1-benzothiophene-2-carboxamide]
C. elegans Slo-1a
  EC50: 158 nM
[1]
  EC50: 0.1 µg/mL (≈ 0.205 µM)

## CN(C)c1c(C(=O)N[C@H]2CCOc3ccccc32)sc2c(-c3cccc(Cl)c3Cl)nccc12 [Example Compound S1-13, 7-(2,3-Dichlorophenyl)-N-[(4S)-3,4-dihydro-2H-chromen-4-yl]-3-(dimethylamino)thieno[2,3-c]pyridine-2-carboxamide]
C. elegans Slo-1a
  EC50: 15.8 nM
[1]
  EC50: 0.08 µg/mL (≈ 0.161 µM)

## COc1c(C(=O)N[C@H]2CCOc3ccccc32)sc2c(-c3cc(Cl)cc(Cl)c3)nccc12 [Example Compound S1-14, 7-(3,5-Dichlorophenyl)-N-[(4S)-3,4-dihydro-2H-chromen-4-yl]-3-methoxythieno[2,3-c]pyridine-2-carboxamide]
C. elegans Slo-1a
  EC50: 794 nM
[1]
  EC50: 2 µg/mL (≈ 4.12 µM)

## COc1c(C(=O)N[C@H]2CCOc3ccccc32)sc2c(-c3cccc(Cl)c3)nccc12 [Example Compound S1-15, 7-(3-Chlorophenyl)-N-[(4S)-3,4-dihydro-2H-chromen-4-yl]-3-methoxythieno[2,3-c]pyridine-2-carboxamide]
C. elegans Slo-1a
  EC50: 794 nM
[1]
  EC50: > 2 µg/mL

## COc1c(C(=O)N[C@H]2CCOc3ccccc32)sc2c(-c3cccc(Cl)c3Cl)nccc12 [Example Compound S1-16, 7-(2,3-Dichlorophenyl)-N-[(4S)-3,4-dihydro-2H-chromen-4-yl]-3-methoxythieno[2,3-c]pyridine-2-carboxamide]
C. elegans Slo-1a
  EC50: 25.1 nM
[1]
  EC50: 0.18 µg/mL (≈ 0.371 µM)

## O=C(N[C@H]1CCOc2ccccc21)c1sc2c(-c3cccc(Cl)c3Cl)ccc(F)c2c1N1CCOCC1 [Example Compound S1-17, 7-(2,3-Dichlorophenyl)-N-[(4S)-3,4-dihydro-2H-chromen-4-yl]-4-fluoro-3-(morpholin-4-yl)-1-benzothiophene-2-carboxamide]
C. elegans Slo-1a
  EC50: 50.1 nM
[1]
  EC50: 0.52 µg/mL (≈ 0.933 µM)

## O=C(N[C@H]1CCOc2ccccc21)c1sc2c(-c3cc(Cl)cc(Cl)c3)ccc(F)c2c1N1CCOCC1 [Example Compound S1-18, 7-(3,5-Dichlorophenyl)-N-[(4S)-3,4-dihydro-2H-chromen-4-yl]-4-fluoro-3-(morpholin-4-yl)-1-benzothiophene-2-carboxamide]
C. elegans Slo-1a
  EC50: 126 nM
[1]
  EC50: 0.27 µg/mL (≈ 0.484 µM)

## Cn1c(C(=O)N[C@H]2CCOc3ccccc32)nc2c(-c3cccc(Cl)c3Cl)ccnc21 [Example Compound S2-1, 7-(2,3-Dichlorophenyl)-N-[(4S)-3,4-dihydro-2H-chromen-4-yl]-3-methyl-3H-imidazo[4,5-b]pyridine-2-carboxamide]
C. elegans Slo-1a
  EC50: 31.6 nM
[1]
  EC50: 0.63 µg/mL (≈ 1.39 µM)

## Cn1c(C(=O)N[C@H]2CCc3ccccc32)nc2c(-c3cccc(Cl)c3Cl)ccnc21 [Example Compound S2-2, 7-(2,3-Dichlorophenyl)-N-[(1S)-2,3-dihydro-1H-inden-1-yl]-3-methyl-3H-imidazo[4,5-b]pyridine-2-carboxamide]
C. elegans Slo-1a
  EC50: 501 nM
[1]
  EC50: 0.37 µg/mL (≈ 0.846 µM)

## CC(C)n1c(C(=O)N[C@H]2CCOc3ccccc32)cc2c(-c3cc(Cl)nc(Cl)c3)cccc21 [Example Compound S2-3, 4-(2,6-Dichloropyridin-4-yl)-N-[(4S)-3,4-dihydro-2H-chromen-4-yl]-1-(propan-2-yl)-1H-indole-2-carboxamide]
C. elegans Slo-1a
  EC50: 100 nM
[1]
  EC50: > 2 µg/mL

## CC(C)n1c(C(=O)N[C@H]2CCOc3ccccc32)cc2c(-c3cc(Cl)cc(Cl)c3Cl)cccc21 [Example Compound S2-4, N-[(4S)-3,4-Dihydro-2H-chromen-4-yl]-1-(propan-2-yl)-4-(2,3,5-trichlorophenyl)-1H-indole-2-carboxamide]
C. elegans Slo-1a
  EC50: 15.8 nM
[1]
  EC50: 0.02 µg/mL (≈ 0.0389 µM)

## CC(C)n1c(C(=O)N[C@H]2CCOc3ccccc32)cc2c(-c3cc(Cl)cc(Cl)c3)cccc21 [Example Compound S2-5, 4-(3,5-Dichlorophenyl)-N-[(4S)-3,4-dihydro-2H-chromen-4-yl]-1-(propan-2-yl)-1H-indole-2-carboxamide]
C. elegans Slo-1a
  EC50: 25.1 nM
[1]
  EC50: 0.06 µg/mL (≈ 0.125 µM)

## CC(C)n1c(C(=O)N[C@H]2CCOc3ccccc32)cc2c(-c3cccc(Cl)c3Cl)cccc21 [Example Compound S2-7, 4-(2,3-Dichlorophenyl)-N-[(4S)-3,4-dihydro-2H-chromen-4-yl]-1-(propan-2-yl)-1H-indole-2-carboxamide]
C. elegans Slo-1a
  EC50: 20 nM
[1]
  EC50: 0.01 µg/mL (≈ 0.0209 µM)

## CC(C)c1c(C(=O)N[C@H]2CCOc3ccccc32)nc2c(-c3cccc(Cl)c3Cl)cccn12 [Example Compound S3-1, 8-(2,3-Dichlorophenyl)-N-[(4S)-3,4-dihydro-2H-chromen-4-yl]-3-(propan-2-yl)imidazo[1,2-a]pyridine-2-carboxamide]
C. elegans Slo-1a
  EC50: 251 nM
[1]
  EC50: 0.63 µg/mL (≈ 1.31 µM)

## O=C(N[C@H]1CCOc2ccccc21)c1cnc2c(cnn2-c2c(F)cccc2F)c1Cl [Example Compound S4-1, 4-Chloro-1-(2,6-difluorophenyl)-N-[(4S)-3,4-dihydro-2H-chromen-4-yl]-1H-pyrazolo[3,4-b]pyridine-5-carboxamide]
C. elegans Slo-1a
  EC50: 1120 nM
[1]
  EC50: 0.41 µg/mL (≈ 0.93 µM)

## Cc1nn(-c2cc(Cl)cc(Cl)c2)c2ncc(C(=O)N[C@H]3CCOc4ccccc43)c(N(C)C)c12 [Example Compound S4-2, 1-(3,5-Dichlorophenyl)-N-[(4S)-3,4-dihydro-2H-chromen-4-yl]-4-(dimethylamino)-3-methyl-1H-pyrazolo[3,4-b]pyridine-5-carboxamide]
C. elegans Slo-1a
  EC50: 2000 nM
[1]
  EC50: > 2 µg/mL

## Cc1nn(-c2c(F)cccc2F)c2ncc(C(=O)N[C@H]3CCOc4ccccc43)c(N(C)C)c12 [Example Compound S4-3, 1-(2,6-Difluorophenyl)-N-[(4S)-3,4-dihydro-2H-chromen-4-yl]-4-(dimethylamino)-3-methyl-1H-pyrazolo[3,4-b]pyridine-5-carboxamide]
C. elegans Slo-1a
  EC50: 158 nM
[1]
  EC50: 1.82 µg/mL (≈ 3.93 µM)

## CN(C)c1c(C(=O)N[C@H]2CCOc3ccccc32)cnc2c1cnn2-c1cc(Cl)cc(Cl)c1 [Example Compound S4-4, 1-(3,5-Dichlorophenyl)-N-[(4S)-3,4-dihydro-2H-chromen-4-yl]-4-(dimethylamino)-1H-pyrazolo[3,4-b]pyridine-5-carboxamide]
C. elegans Slo-1a
  EC50: 501 nM
[1]
  EC50: > 2 µg/mL

## CN(C)c1c(C(=O)N[C@H]2CCOc3ccccc32)cnc2c1cnn2-c1c(F)cccc1F [Example Compound S4-5, 1-(2,6-Difluorophenyl)-N-[(4S)-3,4-dihydro-2H-chromen-4-yl]-4-(dimethylamino)-1H-pyrazolo [3,4-b]pyridine-5-carboxamide]
C. elegans Slo-1a
  EC50: 398 nM
[1]
  EC50: > 2 µg/mL

## CC(C)c1c(C(=O)N[C@H]2CCc3ccccc32)ccc2c1nnn2-c1ccc(Cl)cc1 [Example Compound S4-6, 1-(4-Chlorophenyl)-N-[(1S)-2,3-dihydro-1H-inden-1-yl]-4-(propan-2-yl)-1H-benzotriazole-5-carboxamide]
C. elegans Slo-1a
  EC50: 251 nM
[1]
  EC50: > 2 µg/mL

## CC(C)c1c(C(=O)N[C@H]2CCc3ccccc32)ccc2c1nnn2-c1ccccc1 [Example Compound S4-7, N-[(1S)-2,3-Dihydro-1H-inden-1-yl]-1-phenyl-4-(propan-2-yl)-1H-benzotriazole-5-carboxamide]
C. elegans Slo-1a
  EC50: 2000 nM
[1]
  EC50: > 2 µg/mL
